From patent US10870647B2, “Imidazopyridine derivative, method for preparing same, and pharmaceutical composition containing same as active ingredient for preventing or treating cancer” (DAEGU-GYEONGBUK MEDICAL INNOVATION FOUNDATION, priority 2016, dated 2020) come the findings set out here.

Assay in all cases: Kinase selectivity, scanMAX Kinase assay panel (DiscoverX), % control at 1 uM
Holding throughout (format): binding

Test [1] addresses T1, scanMAX Kinase assay panel (Homo sapiens, UniProt P00519).
T1 construct: purchased DiscoverX
To be noted: 1 uM, read-out: Percent Control (%). A digest of the protocol: (§1)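 Activity was called for kinases showing % control under 35, calculated from compound signal relative to positive and negative controls. Each compound screened at 1 uM against the DiscoverX scanMAX panel.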

Test [2] addresses T2, scanMAX Kinase assay panel (Homo sapiens, UniProt O15530).
T2 construct: purchased DiscoverX
T2 sequence (O15530 1-556): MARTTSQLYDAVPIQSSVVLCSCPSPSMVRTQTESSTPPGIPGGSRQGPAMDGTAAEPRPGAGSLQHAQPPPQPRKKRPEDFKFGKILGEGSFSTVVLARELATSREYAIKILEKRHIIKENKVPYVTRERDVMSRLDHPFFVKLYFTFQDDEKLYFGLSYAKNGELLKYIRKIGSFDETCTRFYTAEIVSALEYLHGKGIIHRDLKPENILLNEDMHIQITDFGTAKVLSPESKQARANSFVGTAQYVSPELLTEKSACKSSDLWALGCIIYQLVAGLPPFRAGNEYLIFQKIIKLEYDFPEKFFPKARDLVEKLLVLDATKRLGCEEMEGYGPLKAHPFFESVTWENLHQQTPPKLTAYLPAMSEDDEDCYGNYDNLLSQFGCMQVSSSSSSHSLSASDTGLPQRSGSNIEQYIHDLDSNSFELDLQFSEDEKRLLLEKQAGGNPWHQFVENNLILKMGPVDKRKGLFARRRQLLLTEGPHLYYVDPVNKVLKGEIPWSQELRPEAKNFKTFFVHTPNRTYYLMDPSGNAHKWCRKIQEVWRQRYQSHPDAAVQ
To be noted: PDPK1; 1 uM; read-out: Percent Control (%). The method in brief:
as §1

Test [3] concerns the target T3, scanMAX Kinase assay panel (Homo sapiens, UniProt P35916).
T3 construct: purchased DiscoverX
Particulars: FLT4; 1 uM; read-out: Percent Control (%). The method in brief:
as §1

In test [4] the target is T4, scanMAX Kinase assay panel (Homo sapiens, UniProt Q9UQM7).
T4 construct: purchased DiscoverX
To be noted: CAMK2A; 1 uM; read-out: Percent Control (%). The method in brief:
as §1

In test [5] the target is T5, scanMAX Kinase assay panel (Homo sapiens, UniProt Q13131).
T5 construct: purchased DiscoverX
Particulars: AMPK-alpha1; 1 uM; read-out: Percent Control (%). A digest of the protocol: as §1

Test [6] concerns the target T6, scanMAX Kinase assay panel (Homo sapiens, UniProt Q00535).
T6 construct: purchased DiscoverX
To be noted: CDK5; 1 uM; read-out: Percent Control (%). The method in brief:
as §1

Test [7] addresses T7, scanMAX Kinase assay panel (Homo sapiens, UniProt P36888).
T7 construct: purchased DiscoverX
T7 sequence (P36888 27-993): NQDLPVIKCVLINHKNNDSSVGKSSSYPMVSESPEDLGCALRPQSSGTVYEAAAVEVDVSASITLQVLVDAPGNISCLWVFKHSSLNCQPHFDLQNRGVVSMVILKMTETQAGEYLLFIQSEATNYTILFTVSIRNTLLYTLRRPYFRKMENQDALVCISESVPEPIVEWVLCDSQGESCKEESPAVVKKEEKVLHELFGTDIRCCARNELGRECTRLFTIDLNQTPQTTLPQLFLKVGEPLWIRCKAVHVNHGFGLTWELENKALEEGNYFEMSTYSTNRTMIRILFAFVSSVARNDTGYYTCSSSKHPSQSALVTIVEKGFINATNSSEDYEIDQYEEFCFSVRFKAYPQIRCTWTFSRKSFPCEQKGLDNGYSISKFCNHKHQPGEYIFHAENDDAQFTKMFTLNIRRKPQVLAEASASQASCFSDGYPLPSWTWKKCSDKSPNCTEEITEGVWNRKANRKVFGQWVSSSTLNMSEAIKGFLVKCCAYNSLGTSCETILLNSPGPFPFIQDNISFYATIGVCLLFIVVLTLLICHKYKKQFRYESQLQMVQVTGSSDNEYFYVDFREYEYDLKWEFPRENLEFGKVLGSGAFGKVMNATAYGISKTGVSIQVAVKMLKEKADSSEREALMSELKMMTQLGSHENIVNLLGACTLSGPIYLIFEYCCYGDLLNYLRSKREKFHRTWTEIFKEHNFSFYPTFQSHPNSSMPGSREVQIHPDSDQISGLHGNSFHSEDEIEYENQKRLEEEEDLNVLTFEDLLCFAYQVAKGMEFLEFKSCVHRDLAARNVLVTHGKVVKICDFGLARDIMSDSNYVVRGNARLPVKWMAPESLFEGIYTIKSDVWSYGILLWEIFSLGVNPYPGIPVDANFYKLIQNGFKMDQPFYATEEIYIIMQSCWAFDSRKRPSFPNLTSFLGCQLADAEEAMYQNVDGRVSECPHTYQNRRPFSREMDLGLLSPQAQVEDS
Particulars: 1 uM, read-out: Percent Control (%). The method in brief:
as §1

Test [8] concerns the target T8, scanMAX Kinase assay panel (Homo sapiens, UniProt O00750).
T8 construct: purchased DiscoverX
To be noted: PIK3C2B; 1 uM; read-out: Percent Control (%). The method in brief: as §1

In test [9] the target is T9, scanMAX Kinase assay panel (Homo sapiens, UniProt P29597).
T9 construct: purchased DiscoverX
To be noted: 1 uM, read-out: Percent Control (%). The method in brief:
as §1

Test [10] concerns the target T10, scanMAX Kinase assay panel (Homo sapiens, UniProt P30291).
T10 construct: purchased DiscoverX
To be noted: WEE1; 1 uM; read-out: Percent Control (%). The method in brief: as §1

Test [11] addresses T11, scanMAX Kinase assay panel (Homo sapiens, UniProt Q6DT37).
T11 construct: purchased DiscoverX
Particulars: DMPK2; 1 uM; read-out: Percent Control (%). The method in brief:
as §1

Where two headings read alike, the source gives them in different places.

T3 sequence (P35916 25-1363): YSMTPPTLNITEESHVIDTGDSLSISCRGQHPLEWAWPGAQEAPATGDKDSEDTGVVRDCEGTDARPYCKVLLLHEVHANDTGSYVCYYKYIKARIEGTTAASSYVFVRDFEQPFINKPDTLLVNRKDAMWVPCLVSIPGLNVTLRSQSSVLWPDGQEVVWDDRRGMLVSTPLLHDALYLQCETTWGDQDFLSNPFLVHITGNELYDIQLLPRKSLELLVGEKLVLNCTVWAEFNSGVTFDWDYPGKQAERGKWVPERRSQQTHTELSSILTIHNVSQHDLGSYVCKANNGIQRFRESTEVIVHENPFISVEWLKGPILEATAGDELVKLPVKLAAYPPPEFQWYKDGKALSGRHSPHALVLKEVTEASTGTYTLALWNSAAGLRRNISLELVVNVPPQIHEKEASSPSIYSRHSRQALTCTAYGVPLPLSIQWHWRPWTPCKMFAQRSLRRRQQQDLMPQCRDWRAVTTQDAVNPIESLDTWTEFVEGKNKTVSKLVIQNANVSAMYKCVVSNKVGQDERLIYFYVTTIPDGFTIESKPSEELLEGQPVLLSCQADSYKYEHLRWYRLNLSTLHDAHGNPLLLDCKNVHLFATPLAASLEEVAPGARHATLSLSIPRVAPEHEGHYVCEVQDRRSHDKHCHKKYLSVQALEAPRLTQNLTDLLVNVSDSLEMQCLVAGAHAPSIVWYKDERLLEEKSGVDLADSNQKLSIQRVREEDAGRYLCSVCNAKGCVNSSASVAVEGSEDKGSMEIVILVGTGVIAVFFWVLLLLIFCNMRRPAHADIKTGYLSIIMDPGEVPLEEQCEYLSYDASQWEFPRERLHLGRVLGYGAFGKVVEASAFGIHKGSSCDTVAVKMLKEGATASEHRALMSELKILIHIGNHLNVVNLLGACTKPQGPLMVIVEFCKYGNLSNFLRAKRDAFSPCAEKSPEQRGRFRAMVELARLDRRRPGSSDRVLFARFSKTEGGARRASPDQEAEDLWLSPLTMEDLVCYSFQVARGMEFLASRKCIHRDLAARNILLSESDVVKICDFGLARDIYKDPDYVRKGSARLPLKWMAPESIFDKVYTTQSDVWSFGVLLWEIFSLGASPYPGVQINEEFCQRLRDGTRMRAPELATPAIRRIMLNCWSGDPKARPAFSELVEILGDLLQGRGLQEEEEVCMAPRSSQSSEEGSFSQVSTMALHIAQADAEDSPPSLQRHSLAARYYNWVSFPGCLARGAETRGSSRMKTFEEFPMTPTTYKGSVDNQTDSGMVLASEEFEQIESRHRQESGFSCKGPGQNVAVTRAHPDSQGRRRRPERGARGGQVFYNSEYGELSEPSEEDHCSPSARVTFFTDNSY
T1 sequence (P00519 whole entry): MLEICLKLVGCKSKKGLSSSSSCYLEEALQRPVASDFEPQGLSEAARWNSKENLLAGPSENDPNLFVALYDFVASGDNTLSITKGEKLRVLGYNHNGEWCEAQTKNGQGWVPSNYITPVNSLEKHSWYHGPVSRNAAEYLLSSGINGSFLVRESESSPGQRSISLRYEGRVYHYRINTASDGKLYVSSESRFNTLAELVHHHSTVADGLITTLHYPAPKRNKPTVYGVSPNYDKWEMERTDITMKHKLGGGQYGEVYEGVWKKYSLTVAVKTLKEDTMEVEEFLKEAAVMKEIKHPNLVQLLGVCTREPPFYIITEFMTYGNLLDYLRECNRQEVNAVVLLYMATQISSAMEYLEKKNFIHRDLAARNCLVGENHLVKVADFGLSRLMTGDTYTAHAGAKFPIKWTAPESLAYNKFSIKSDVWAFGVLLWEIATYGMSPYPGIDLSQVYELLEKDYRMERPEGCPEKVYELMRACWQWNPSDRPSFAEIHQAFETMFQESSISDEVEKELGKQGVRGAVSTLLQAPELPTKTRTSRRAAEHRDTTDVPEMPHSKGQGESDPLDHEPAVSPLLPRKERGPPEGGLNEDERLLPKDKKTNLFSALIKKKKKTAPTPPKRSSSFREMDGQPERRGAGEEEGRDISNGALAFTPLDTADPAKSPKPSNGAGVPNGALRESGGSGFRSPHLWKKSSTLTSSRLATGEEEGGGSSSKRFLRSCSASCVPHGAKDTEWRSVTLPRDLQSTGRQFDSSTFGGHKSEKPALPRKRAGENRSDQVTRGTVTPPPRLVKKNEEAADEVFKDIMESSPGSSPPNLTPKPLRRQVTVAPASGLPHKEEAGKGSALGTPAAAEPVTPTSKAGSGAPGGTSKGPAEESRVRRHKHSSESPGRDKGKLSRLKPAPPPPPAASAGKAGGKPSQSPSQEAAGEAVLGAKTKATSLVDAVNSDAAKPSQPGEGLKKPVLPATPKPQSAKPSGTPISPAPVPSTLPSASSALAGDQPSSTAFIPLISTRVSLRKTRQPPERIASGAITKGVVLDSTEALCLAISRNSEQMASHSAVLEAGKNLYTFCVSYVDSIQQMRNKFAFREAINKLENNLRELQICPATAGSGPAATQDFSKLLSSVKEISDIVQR
T4 sequence (Q9UQM7 whole entry): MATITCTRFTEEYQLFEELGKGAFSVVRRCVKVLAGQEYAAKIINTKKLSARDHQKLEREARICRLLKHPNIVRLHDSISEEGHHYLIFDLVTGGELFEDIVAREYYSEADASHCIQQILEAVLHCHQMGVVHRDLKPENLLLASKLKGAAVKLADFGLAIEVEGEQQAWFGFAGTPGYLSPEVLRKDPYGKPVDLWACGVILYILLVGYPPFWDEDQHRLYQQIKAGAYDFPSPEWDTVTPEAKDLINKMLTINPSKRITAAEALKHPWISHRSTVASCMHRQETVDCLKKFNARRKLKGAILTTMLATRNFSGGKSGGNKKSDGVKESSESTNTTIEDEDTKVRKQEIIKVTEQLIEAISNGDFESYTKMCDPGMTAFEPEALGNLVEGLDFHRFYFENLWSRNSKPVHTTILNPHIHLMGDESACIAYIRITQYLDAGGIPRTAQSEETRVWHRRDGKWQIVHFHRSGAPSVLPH
T6 sequence (Q00535 whole entry): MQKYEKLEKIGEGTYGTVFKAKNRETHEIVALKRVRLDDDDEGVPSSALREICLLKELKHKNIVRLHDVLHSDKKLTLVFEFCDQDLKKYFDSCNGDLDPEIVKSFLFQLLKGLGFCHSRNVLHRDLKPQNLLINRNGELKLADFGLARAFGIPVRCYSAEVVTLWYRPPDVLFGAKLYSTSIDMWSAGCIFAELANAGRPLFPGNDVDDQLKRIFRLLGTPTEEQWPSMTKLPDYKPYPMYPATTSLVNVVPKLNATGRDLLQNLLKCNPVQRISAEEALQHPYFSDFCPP
T11 sequence (Q6DT37 whole entry): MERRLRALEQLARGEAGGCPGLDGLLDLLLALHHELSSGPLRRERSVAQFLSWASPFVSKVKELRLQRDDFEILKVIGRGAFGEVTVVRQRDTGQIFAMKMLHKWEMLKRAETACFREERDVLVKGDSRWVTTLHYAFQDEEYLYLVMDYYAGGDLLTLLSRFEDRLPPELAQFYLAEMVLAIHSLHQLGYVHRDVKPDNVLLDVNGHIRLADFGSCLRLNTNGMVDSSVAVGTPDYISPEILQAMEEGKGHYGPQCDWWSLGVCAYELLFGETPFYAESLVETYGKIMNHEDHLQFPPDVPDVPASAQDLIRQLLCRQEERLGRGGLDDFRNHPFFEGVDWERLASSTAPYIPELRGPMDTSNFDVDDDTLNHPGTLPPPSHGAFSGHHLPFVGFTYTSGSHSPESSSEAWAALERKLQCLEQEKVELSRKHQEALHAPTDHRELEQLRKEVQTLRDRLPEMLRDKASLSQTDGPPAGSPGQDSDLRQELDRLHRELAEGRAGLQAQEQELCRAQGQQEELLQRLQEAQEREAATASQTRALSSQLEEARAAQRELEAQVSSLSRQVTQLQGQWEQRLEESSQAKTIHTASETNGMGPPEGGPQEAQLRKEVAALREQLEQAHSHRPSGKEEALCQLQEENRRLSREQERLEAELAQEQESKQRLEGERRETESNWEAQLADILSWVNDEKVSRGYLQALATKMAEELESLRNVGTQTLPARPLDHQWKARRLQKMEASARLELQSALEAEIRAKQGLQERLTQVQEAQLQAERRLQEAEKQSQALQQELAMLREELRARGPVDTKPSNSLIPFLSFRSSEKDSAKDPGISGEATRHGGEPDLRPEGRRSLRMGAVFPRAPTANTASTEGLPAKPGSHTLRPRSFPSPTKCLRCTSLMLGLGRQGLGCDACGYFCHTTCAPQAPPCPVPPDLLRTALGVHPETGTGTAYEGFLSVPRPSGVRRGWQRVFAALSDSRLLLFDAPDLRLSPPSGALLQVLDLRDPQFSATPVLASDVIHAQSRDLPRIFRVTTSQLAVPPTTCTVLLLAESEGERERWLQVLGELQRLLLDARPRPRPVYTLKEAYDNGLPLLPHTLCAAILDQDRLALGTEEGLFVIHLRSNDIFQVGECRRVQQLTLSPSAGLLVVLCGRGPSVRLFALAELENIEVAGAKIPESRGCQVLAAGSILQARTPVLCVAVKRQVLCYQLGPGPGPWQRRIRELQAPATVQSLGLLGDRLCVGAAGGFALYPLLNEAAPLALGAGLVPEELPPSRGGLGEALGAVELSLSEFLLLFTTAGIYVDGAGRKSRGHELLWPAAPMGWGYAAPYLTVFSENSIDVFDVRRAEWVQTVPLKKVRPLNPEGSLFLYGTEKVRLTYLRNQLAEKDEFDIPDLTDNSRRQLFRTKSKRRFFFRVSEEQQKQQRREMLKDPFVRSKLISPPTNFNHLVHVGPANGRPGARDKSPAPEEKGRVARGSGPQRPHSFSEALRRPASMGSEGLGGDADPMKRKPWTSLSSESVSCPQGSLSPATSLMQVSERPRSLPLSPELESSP

Turning to `Cc1ccc(C(=O)Nc2ccc(CN3CCN(C)CC3)c(C(F)(F)F)c2)cc1C#Cc1cnc2c(Nc3cnn(C)c3)cccn12` [Example 1, 4-methyl-3-((8-((1-methyl-1H-pyrazol-4-yl)amino)imidazo[1,2-a]pyridin-3-yl)ethynyl)-N-(4-((4-methylpiperazin-1-yl)methyl)-3-(trifluoromethyl)phenyl)benzamide], the remaining binding at 1 µM in [1] (ABL1-nonphosphorylated) worked out at 1%; in test [1] (ABL1-phosphorylated) it was 0%; in test [2], 50%; in [3], 1%; in [4], 82%; in test [5], 7%. Further, the remaining binding at 1 µM in test [6] worked out at 30%; in [7] (FLT3-autoinhibited) it was 46%; in test [7] (FLT3) it was 1%; in test [8], 100%; in test [9] (TYK2 (JH1domain-catalytic)) it was 9%; in test [9] (TYK2 (JH2domain-pseudokinase)), 100%. Besides, the remaining binding at 1 µM came to 92% in test [10] and 100% in test [11].

For `Cc1cn(-c2cc(NC(=O)c3ccc(C)c(C#Cc4cnc5c(Nc6cnn(C)c6)cccn45)c3)cc(C(F)(F)F)c2)cn1` [Example 12, 4-methyl-N-(3-(4-methyl-1H-imidazol-1-yl)-5-(trifluoromethyl)phenyl)-3-((8-((1-methyl-1H-pyrazol-4-yl)amino)imidazo[1,2-a]pyridin-3-yl)ethynyl)benzamide], the remaining binding at 1 µM was found to be 1% in test [1] (ABL1-nonphosphorylated); 6% in [1] (ABL1-phosphorylated); 93% in [2]; 6% in test [3]; 96% in [4]; 74% in [5]. For the same compound, the remaining binding at 1 µM in test [6] was 89%; in [7] (FLT3-autoinhibited), 100%; in test [7] (FLT3), 4%; in test [8], 91%; in [9] (TYK2 (JH1domain-catalytic)), 96%; in test [9] (TYK2 (JH2domain-pseudokinase)) it was 100%. Further, the remaining binding at 1 µM in test [10] came to 90%; in test [11], 92%.

For `Cc1ccc(NC(=O)C2(C(=O)Nc3ccc(F)cc3)CC2)cc1C#Cc1cnc2c(Nc3cnn(C(C)C)c3)cccn12` [Example 78], the remaining binding at 1 µM in test [1] (ABL1-nonphosphorylated) worked out at 4%; in [1] (ABL1-phosphorylated), 56%; in test [2], 92%; in test [3], 26%; in [4] it was 100%; in test [5], 100%. Besides, the remaining binding at 1 µM in test [6] came to 100%; in test [7] (FLT3-autoinhibited), 100%; in test [7] (FLT3), 42%; in test [8], 100%; in test [9] (TYK2 (JH1domain-catalytic)), 97%; in test [9] (TYK2 (JH2domain-pseudokinase)), 100%. In addition, the remaining binding at 1 µM in [10] and in [11] was 100% in each case.
